Results reported in PubChem BioAssay (NCI).
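Briefly, cells in 96-well plates were exposed to five compound concentrations for 48 h, and endpoints were estimated by linear interpolation. GI50: concentration for 50% inhibition of growth. TGI denotes the concentration required for complete inhibition of growth.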

Assays:
Assay in all cases: DTP human tumour cell line panel, 48 h
ACHN renal = tested on: ACHN renal
MCF7 breast = tested on: MCF7 breast
RXF 393 renal = tested on: RXF 393 renal
A549 NSCLC = tested on: A549 NSCLC
COLO 205 colon = tested on: COLO 205 colon
PC-3 prostate = tested on: PC-3 prostate
SK-MEL-2 melanoma = tested on: SK-MEL-2 melanoma
SK-MEL-5 melanoma = tested on: SK-MEL-5 melanoma
SF-268 CNS = tested on: SF-268 CNS
MDA-MB-231 breast = tested on: MDA-MB-231 breast
T-47D breast = tested on: T-47D breast
HL-60(TB) leukemia = tested on: HL-60(TB) leukemia
LOX IMVI melanoma = tested on: LOX IMVI melanoma
HOP-92 NSCLC = tested on: HOP-92 NSCLC
HCT-15 colon = tested on: HCT-15 colon
IGROV1 ovarian = tested on: IGROV1 ovarian
NCI-H226 lung = tested on: NCI-H226 lung
M14 melanoma = tested on: M14 melanoma
KM12 colon = tested on: KM12 colon
MDA-MB-435 = tested on: MDA-MB-435
U251 CNS = tested on: U251 CNS
SNB-19 CNS = tested on: SNB-19 CNS
UO-31 renal = tested on: UO-31 renal
NCI-H23 lung = tested on: NCI-H23 lung
SK-OV-3 ovarian = tested on: SK-OV-3 ovarian
DU-145 prostate = tested on: DU-145 prostate
A498 renal = tested on: A498 renal
OVCAR-5 ovarian = tested on: OVCAR-5 ovarian
786-0 renal = tested on: 786-0 renal
HCT-116 colon = tested on: HCT-116 colon
OVCAR-4 ovarian = tested on: OVCAR-4 ovarian
HCC-2998 colon = tested on: HCC-2998 colon
CCRF-CEM leukemia = tested on: CCRF-CEM leukemia
UACC-257 melanoma = tested on: UACC-257 melanoma
TK-10 renal = tested on: TK-10 renal
SF-295 CNS = tested on: SF-295 CNS
SN12C renal = tested on: SN12C renal
HOP-62 NSCLC = tested on: HOP-62 NSCLC
SF-539 CNS = tested on: SF-539 CNS
UACC-62 melanoma = tested on: UACC-62 melanoma
SW-620 colon = tested on: SW-620 colon
EKVX NSCLC = tested on: EKVX NSCLC
CAKI-1 renal = tested on: CAKI-1 renal
NCI/ADR-RES ovarian = tested on: NCI/ADR-RES ovarian
BT-549 breast = tested on: BT-549 breast
HS 578T breast = tested on: HS 578T breast
SK-MEL-28 melanoma = tested on: SK-MEL-28 melanoma
HT29 colon = tested on: HT29 colon
NCI-H460 lung = tested on: NCI-H460 lung
NCI-H522 lung = tested on: NCI-H522 lung
OVCAR-8 ovarian = tested on: OVCAR-8 ovarian
SNB-75 CNS = tested on: SNB-75 CNS
MOLT-4 leukemia = tested on: MOLT-4 leukemia
MALME-3M melanoma = tested on: MALME-3M melanoma

SMILES: CCCCCCNC(=O)Oc1ccc(/C(=C(/C)c2ccc(Cl)cc2)c2ccc(OCCN3CCCC3)cc2)cc1
- GI50 (ACHN renal): 1710 nM
- TGI (ACHN renal): 3080 nM
- GI50 (MCF7 breast): 52.5 nM
- TGI (MCF7 breast): 1970 nM
- GI50 (RXF 393 renal): 1700 nM
- TGI (RXF 393 renal): 3260 nM
- GI50 (A549 NSCLC): 1630 nM
- TGI (A549 NSCLC): 3070 nM
- GI50 (COLO 205 colon): 1860 nM
- TGI (COLO 205 colon): 3360 nM
- GI50 (PC-3 prostate): 1520 nM
- TGI (PC-3 prostate): 2950 nM
- GI50 (SK-MEL-2 melanoma): 1890 nM
- TGI (SK-MEL-2 melanoma): 3510 nM
- GI50 (SK-MEL-5 melanoma): 1720 nM
- TGI (SK-MEL-5 melanoma): 3150 nM
- GI50 (SF-268 CNS): 1770 nM
- TGI (SF-268 CNS): 3720 nM
- GI50 (MDA-MB-231 breast): 1730 nM
- TGI (MDA-MB-231 breast): 3220 nM
- GI50 (T-47D breast): 1310 nM
- TGI (T-47D breast): 2880 nM
- GI50 (HL-60(TB) leukemia): 1630 nM
- TGI (HL-60(TB) leukemia): 3740 nM
- GI50 (LOX IMVI melanoma): 1590 nM
- TGI (LOX IMVI melanoma): 2950 nM
- GI50 (HOP-92 NSCLC): 1160 nM
- TGI (HOP-92 NSCLC): 2420 nM
- GI50 (HCT-15 colon): 1500 nM
- TGI (HCT-15 colon): 3000 nM
- GI50 (IGROV1 ovarian): 1740 nM
- TGI (IGROV1 ovarian): 3280 nM
- GI50 (NCI-H226 lung): 2020 nM
- TGI (NCI-H226 lung): 4470 nM
- GI50 (M14 melanoma): 1720 nM
- TGI (M14 melanoma): 3180 nM
- GI50 (KM12 colon): 1980 nM
- TGI (KM12 colon): 3740 nM
- GI50 (MDA-MB-435): 1790 nM
- TGI (MDA-MB-435): 3250 nM
- GI50 (U251 CNS): 1540 nM
- TGI (U251 CNS): 2930 nM
- GI50 (SNB-19 CNS): 1850 nM
- TGI (SNB-19 CNS): 3590 nM
- GI50 (UO-31 renal): 1240 nM
- TGI (UO-31 renal): 2520 nM
- GI50 (NCI-H23 lung): 1780 nM
- TGI (NCI-H23 lung): 3310 nM
- GI50 (SK-OV-3 ovarian): 1630 nM
- TGI (SK-OV-3 ovarian): 3010 nM
- GI50 (DU-145 prostate): 1920 nM
- TGI (DU-145 prostate): 3460 nM
- GI50 (A498 renal): 3930 nM
- TGI (A498 renal): 17000 nM
- GI50 (OVCAR-5 ovarian): 2730 nM
- TGI (OVCAR-5 ovarian): 10100 nM
- GI50 (786-0 renal): 1780 nM
- TGI (786-0 renal): 3290 nM
- GI50 (HCT-116 colon): 1510 nM
- TGI (HCT-116 colon): 3100 nM
- GI50 (OVCAR-4 ovarian): 1840 nM
- TGI (OVCAR-4 ovarian): 3750 nM
- GI50 (HCC-2998 colon): 1650 nM
- TGI (HCC-2998 colon): 3050 nM
- GI50 (CCRF-CEM leukemia): 1780 nM
- TGI (CCRF-CEM leukemia): 4980 nM
- GI50 (UACC-257 melanoma): 1740 nM
- TGI (UACC-257 melanoma): 3240 nM
- GI50 (TK-10 renal): 1620 nM
- TGI (TK-10 renal): 3140 nM
- GI50 (SF-295 CNS): 1730 nM
- TGI (SF-295 CNS): 3170 nM
- GI50 (SN12C renal): 1730 nM
- TGI (SN12C renal): 3200 nM
- GI50 (HOP-62 NSCLC): 1550 nM
- TGI (HOP-62 NSCLC): 2950 nM
- GI50 (SF-539 CNS): 1710 nM
- TGI (SF-539 CNS): 3120 nM
- GI50 (UACC-62 melanoma): 1750 nM
- TGI (UACC-62 melanoma): 3220 nM
- GI50 (SW-620 colon): 1670 nM
- TGI (SW-620 colon): 3130 nM
- GI50 (EKVX NSCLC): 2180 nM
- TGI (EKVX NSCLC): 6120 nM
- GI50 (CAKI-1 renal): 1480 nM
- TGI (CAKI-1 renal): 2820 nM
- GI50 (NCI/ADR-RES ovarian): 1680 nM
- TGI (NCI/ADR-RES ovarian): 3300 nM
- GI50 (BT-549 breast): 1700 nM
- TGI (BT-549 breast): 3200 nM
- GI50 (HS 578T breast): 1660 nM
- TGI (HS 578T breast): 3590 nM
- GI50 (SK-MEL-28 melanoma): 1720 nM
- TGI (SK-MEL-28 melanoma): 3160 nM
- GI50 (HT29 colon): 1620 nM
- TGI (HT29 colon): 3190 nM
- GI50 (NCI-H460 lung): 1760 nM
- TGI (NCI-H460 lung): 3200 nM
- GI50 (NCI-H522 lung): 1780 nM
- TGI (NCI-H522 lung): 3370 nM
- GI50 (OVCAR-8 ovarian): 1720 nM
- TGI (OVCAR-8 ovarian): 3360 nM
- GI50 (SNB-75 CNS): 1790 nM
- TGI (SNB-75 CNS): 8970 nM
- GI50 (MOLT-4 leukemia): 1730 nM
- TGI (MOLT-4 leukemia): 3970 nM
- GI50 (MALME-3M melanoma): 1710 nM
- TGI (MALME-3M melanoma): 3240 nM
